This assay deals with rat MCAO model. The assay is described as follows: Rat MCAO stroke model, adhesive removal test. In kind it is in vivo. Conditions: for Time to remove the adhesive tape from the contralateral paw: day 27, subcutaneous 25 microliters twice a week, each compound 0.65% (w/w) in cottonseed oil, versus vehicle and base line (FIG. 14A). An excerpt:
For the experiments described herein, the animals are anesthetized using ketamine/xylazine solution. The animal's neck is then shaved and a midline incision is made in the skin of the neck, and the tissue underneath is bluntly dissected. The right common carotid artery (CCA) and its junction with the external carotid artery (ECA) and internal carotid artery (ICA) are exposed by blunt dissection. The CCA is then transiently closed by positioning around it a 3-0 silk suture material. The ECA is permanently occluded with the same type of suture material. A third closure, transient, is also done in the ICA with 3-0 silk suture material.
A small hole is cut in the ECA and the nylon thread is inserted into the ICA while avoiding entrance into the pterygopalatine artery. The thread is inserted 21-25 mm until a slight resistance is felt. Then a 3-0 silk suture knot secures the thread.
Following surgery, the rats are returned to their cages and remain under a heating lamp until they awake.
Two parameters are monitored and recorded during the ischemic surgery procedure: animal's core temperature and blood glucose level (BGL).
Core temperature is monitored using rectal probe (YSI USA model 400) connected to a measuring unit (Cole Parmer model 8402-00) during the entire surgery period. Ischemic insult is started when rectal temperature is 37-38° C.
The rats of the different groups were injected twice a week subcutaneous with 25 microliters of designated test item. First injection was given three hours after stroke induction.
• Vehicle: cottonseed oil • IMDA: 0.65% (w/w) in cottonseed oil • MDA: 0.65% (w/w) in cottonseed oil • IMDA and MDA: each 0.65% (w/w) in cottonseed oil • IMDA, MDA and OA: each 0.65% (w/w) in cottonseed oil MDA alone; IMDA alone; a combination of MDA+IMDA; and a combination of OA+MDA+IMDA, were tested using a rat MCAO model, for their therapeutic capacity. Stroke induced rats were treated with each of the tested compounds and the improvement of their sensorimotor abilities were tested using the adhesive removal test. […] The time to remove the tape is recorded. […]

In the case of `C/C(=C\CC[C@H](C)[C@@H]1CC[C@]2(C)C3=CC[C@H]4C(C)(C)C(=O)CC[C@]4(C)[C@H]3CC[C@@]12C)C(=O)O` [MDA, Masticadienoic acid], the “Time to remove the adhesive tape from the contralateral paw” value is recorded as “only slightly better than the vehicle control”. With `CC(=CCCC(C)C1CCC2(C)C3=C(CCC12C)C1(C)CCC(=O)C(C)(C)C1CC3)C(=O)O` (stereo not drawn) [IMDA, Isomasticadienoic acid], the “Time to remove the adhesive tape from the contralateral paw” value is on record as “able to improve the score of treated rats”. For the same compound, the “Baseline fold change, removal of adhesive tape from the contralateral paw” value (day 27 relative to base line score (FIG. 14B)) is recorded as 10 fold.

The record behind these values is patent US10561670B2, “Compositions comprising acidic extracts of mastic gum” (REGENERA PHARMA LTD., priority 2010, dated 2020).
